Measured values published in PubChem BioAssay AID2060625 (Molecular Pharmacology Branch, DTP, NCI, 2025).
Where “and” joins values, the source holds several entries; their conditions need not be identical. Identical values can stand only once.

Test system: 186277-243-T-J2-PDC spheroids with HUVEC/MSC, viability
Assay: Anticancer human tumor 186277-243-T-J2-PDC patient-derived colon adenocarcinoma cell line growth inhibition [CLK]
Conditions: for viability, T/C: stronger effect = lower value
Description: A high-throughput screen of multi-cell type tumor spheroids was designed to identify active combinations of […] and targeted small molecules. Complex spheroids include a stromal component modeled by human endothelial cells (HUVEC) and fibroblasts modeled by human mesenchymal stem cells (MSCs). The concentration ranges selected for each drug and investigational agent were based upon clinically achievable concentrations if the clinical Cmax of the agent was known.
Compounds. The drugs and investigational agents: cirtuvivint (SM08502; NSC835563), CC-671 (NSC850746), vemurafenib (NSC761431), tapotoclax (NSC804041), sotorasib (NSC818433), adagrasib (NSC831453), MRTX-1133 (NSC836407), BAY2416964 (NSC825713), copanlisib (NSC816437), inavolisib (NSC800729), abemaciclib (NSC768073), osimertinib (NSC779217), entinostat (NSC756642), eltanexor (KPT-8602, NSC794443), venetoclax (NSC766270), ceralasertib (NSC777638), bortezomib (NSC756655), olaparib (NSC753686), talazoparib (NSC767125), alisertib (NSC759677), peposertib (NSC802822), gemcitabine (NSC613327), 5-fluorouracil (NSC19893), SN-38 (NSC673596), oxaliplatin (NSC266046), paclitaxel (NSC125973), and doxorubicin (NSC123127), were obtained from the National Cancer Institute (NCI) Developmental Therapeutics Program Chemical Repository. The FDA-approved anticancer drug set is available from the Developmental Therapeutics Program at https://dtp.cancer.gov/organization/dscb/obtaining/available plates.htm. […] The stock solutions were prepared in dimethyl sulfoxide (DMSO, Sigma-Aldrich, St. Louis, MO, cat. D2650), except for the platinum complexes which were prepared in saline (Quality Biological, Gaithersburg, MD, cat. 114-055-101), at 800-fold the tested concentration and stored at -70 degrees C prior to their use. All drugs and investigational agents were tested over a range starting from a high concentration at or near the clinical Cmax and decreasing in half-log increments. If the clinical Cmax for an agent had not been determined, the highest concentration tested was 10 microM.
Cell Culture. All cells were maintained in an incubator at 37 degrees C and 5% CO2 with 95% humidity. The PDC lines were cultured according to standard operating procedures established by the NCI PDMR. Briefly, all PDCs were thawed and cultured in Matrigel-coated flasks prepared with a working solution of 1X Ham's F-12 nutrient mix, without supplementation (Invitrogen, Waltham, MA, cat. 11765054), 100 U/mL penicillin-streptomycin (Invitrogen, cat. 15140122), and 2.5% Matrigel (Corning Inc., Corning, NY, cat. 354248) for the first three passages. The 947758-054-R-J2-PDC line was cultured in 6B/Colon 1A media, which includes advanced DMEM/F-12 (Thermo Fisher Scientific, cat. 12634028), 10 mM HEPES (Thermo Fisher Scientific, cat. 15630080), 1X GlutaMAX supplement (Thermo Fisher Scientific, cat. 35050061), 0.1 mg/mL primocin (InvivoGen, cat. ant-pm-2), 10% defined fetal bovine serum, heat inactivated (HyClone Laboratories Inc., cat. SH30070.03HI), 1.25 mM N-Acetyl-L-cysteine (Sigma-Aldrich, cat. A9165), 10 mM nicotinamide (Sigma-Aldrich, cat. N0636), 1X B-27 supplement (Thermo Fisher Scientific, cat. 17504044), 1X N-2 supplement (Thermo Fisher Scientific, cat. 17502048), and 10 microM Y-27632 dihydrochloride (Tocris Bioscience, cat. 1254). The 876862-298-R-J1-PDC was cultured in 6E media, which includes all 6B/Colon 1A media components plus 50% L-WRN conditioned media (ATCC, cat. CRL-3276), 50 ng/mL recombinant human EGF recombinant protein (hEGF; Thermo Fisher Scientific, cat. PHG0311), 10 ng/mL recombinant human fibroblast growth factor 10 (hGFG-10; PeproTech, cat. 100-26), 1 ng/mL recombinant human fibroblast growth factor 2 (hFGF-2; PeproTech, cat. 100-18B), and 1 µM prostaglandin E2 (PGE2; Tocris, cat. 2296). The 227483-062-R1-J1-PDC line was cultured in Panc media, containing all 6E components except hFGF-2, with the addition of 500 nM SB-431542 (Selleckchem, cat. S1067) and 10 nM gastrin (Tocris, cat. 3006). […]

[1] = curve of first compound, second compound 0.0316 µM
[2] = curve of first compound, second compound 0.1 µM
[3] = curve of first compound, second compound 0.316 µM
[4] = curve of first compound, second compound 1 µM
[5] = curve of first compound, second compound 3.16 µM
[6] = curve of first compound, second compound 10 µM
[7] = second compound 0.0316 µM, first compound 0.0316 µM
[8] = second compound 0.0316 µM, first compound 0.1 µM
[9] = second compound 0.0316 µM, first compound 0.316 µM
[10] = second compound 0.0316 µM, first compound 1 µM
[11] = second compound 0.0316 µM, first compound 3.16 µM
[12] = second compound 0.0316 µM, first compound 10 µM
[13] = second compound 0.1 µM, first compound 0.0316 µM
[14] = second compound 0.1 µM, first compound 0.1 µM
[15] = second compound 0.1 µM, first compound 0.316 µM
[16] = second compound 0.1 µM, first compound 1 µM
[17] = second compound 0.1 µM, first compound 3.16 µM
[18] = second compound 0.1 µM, first compound 10 µM
[19] = second compound 0.316 µM, first compound 0.0316 µM
[20] = second compound 0.316 µM, first compound 0.1 µM
[21] = second compound 0.316 µM, first compound 0.316 µM
[22] = second compound 0.316 µM, first compound 1 µM
[23] = second compound 0.316 µM, first compound 3.16 µM
[24] = second compound 0.316 µM, first compound 10 µM
[25] = second compound 1 µM, first compound 0.0316 µM
[26] = second compound 1 µM, first compound 0.1 µM
[27] = second compound 1 µM, first compound 0.316 µM
[28] = second compound 1 µM, first compound 1 µM
[29] = second compound 1 µM, first compound 3.16 µM
[30] = second compound 1 µM, first compound 10 µM
[31] = second compound 3.16 µM, first compound 0.0316 µM
[32] = second compound 3.16 µM, first compound 0.1 µM
[33] = second compound 3.16 µM, first compound 0.316 µM
[34] = second compound 3.16 µM, first compound 1 µM
[35] = second compound 3.16 µM, first compound 3.16 µM
[36] = second compound 3.16 µM, first compound 10 µM
[37] = second compound 10 µM, first compound 0.0316 µM
[38] = second compound 10 µM, first compound 0.1 µM
[39] = second compound 10 µM, first compound 0.316 µM
[40] = second compound 10 µM, first compound 1 µM
[41] = second compound 10 µM, first compound 3.16 µM
[42] = second compound 10 µM, first compound 10 µM
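Also: compound exposure lasted seven days before readout.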
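For viability, T/C in this document: 100% = DMSO vehicle control wells.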

`CC(=O)O[C@H]1C(=O)[C@@]2(C)[C@H]([C@H](OC(=O)c3ccccc3)[C@]3(O)C[C@H](OC(=O)[C@H](O)[C@@H](NC(=O)c4ccccc4)c4ccccc4)C(C)=C1C3(C)C)[C@]1(OC(C)=O)CO[C@@H]1C[C@@H]2O` was tested, and the viability, T/C (compound 0.0316 µM) was 25.2% and 16.5%, the viability, T/C (compound 0.1 µM) was 12.1% and 8.36% and the viability, T/C (compound 0.316 µM) was 11.6% and 7.98%. The viability, T/C (compound 1 µM) was 10.8% and 6.74%, the viability, T/C (compound 3.16 µM) was 8.76% and 8.77% and the viability, T/C (compound 10 µM) was 10.4% and 7.1%. It also gave an IC50 (curve of compound) of under 31.6 nM.

`CC(Nc1ccc2c(c1)OCCn1cc(N3C(=O)OCC3C(F)F)nc1-2)C(N)=O` (stereo unspecified) + CN1CCN(c2cc(C(=O)Nc3cc4cc(-c5cnn(C)c5)ccc4cn3)ccn2)CC1 gave an IC50 [1] of 828 nM, an IC50 [2] of 158 nM and an IC50 [3] of under 31.6 nM. For the same compound, the IC50 [4] was under 31.6 nM, the IC50 [5] was under 31.6 nM and the IC50 [6] was under 31.6 nM. The viability, T/C [7] was 87.7%, the viability, T/C [8] was 94.8% and the viability, T/C [9] was 59.2%. It also gave a viability, T/C [10] of 55.8%, a viability, T/C [11] of 46.4% and a viability, T/C [12] of 42.4%. For the same compound, the viability, T/C [13] was 71.8%, the viability, T/C [14] was 54.4% and the viability, T/C [15] was 42.3%. For the same compound, the viability, T/C [16] was 30.4%, the viability, T/C [17] was 19.4% and the viability, T/C [18] was 13.4%. The viability, T/C [19] was 20.5%, the viability, T/C [20] was 17.4% and the viability, T/C [21] was 7.85%. For the same compound, the viability, T/C [22] was 3.43%, the viability, T/C [23] was 2.25% and the viability, T/C [24] was 1.31%. The viability, T/C [25] was 0.25%, the viability, T/C [26] was 0.73% and the viability, T/C [27] was 0.91%. The viability, T/C [28] was 0.46%, the viability, T/C [29] was 0.47% and the viability, T/C [30] was 1.48%. The viability, T/C [31] was 1.24%, the viability, T/C [32] was 0.72% and the viability, T/C [33] was 1.34%. The viability, T/C [34] was 0.69%, the viability, T/C [35] was 0.82% and the viability, T/C [36] was 0.74%. For the same compound, the viability, T/C [37] was 0.96%, the viability, T/C [38] was 1.39% and the viability, T/C [39] was 0.74%. The viability, T/C [40] was 0.87%, the viability, T/C [41] was 0.87% and the viability, T/C [42] was 0.69%.

`CC(Nc1ccc2c(c1)OCCn1cc(N3C(=O)OCC3C(F)F)nc1-2)C(N)=O` (stereo unspecified) + CNC(=O)c1ccc(Nc2nc(OC3CCCC3)c3c(-c4ccc5nc(C)oc5c4)c[nH]c3n2)c(OC)c1 showed an IC50 [1] of 1790 nM, an IC50 [2] of 41.7 nM and an IC50 [3] of under 31.6 nM. For the same compound, the IC50 [4] was under 31.6 nM, the IC50 [5] was under 31.6 nM and the IC50 [6] was under 31.6 nM. It also gave a viability, T/C [7] of 86.1%, a viability, T/C [8] of 93.9% and a viability, T/C [9] of 63.2%. The viability, T/C [10] was 57.6%, the viability, T/C [11] was 46.6% and the viability, T/C [12] was 30.5%. It also gave a viability, T/C [13] of 53.9%, a viability, T/C [14] of 39.9% and a viability, T/C [15] of 35.2%. It also gave a viability, T/C [16] of 29.4%, a viability, T/C [17] of 20.1% and a viability, T/C [18] of 14.7%. The viability, T/C [19] was 30.4%, the viability, T/C [20] was 24.3% and the viability, T/C [21] was 16.9%. The viability, T/C [22] was 11.4%, the viability, T/C [23] was 10.2% and the viability, T/C [24] was 7.7%. It also gave a viability, T/C [25] of 20.6%, a viability, T/C [26] of 16.4% and a viability, T/C [27] of 12.4%. The viability, T/C [28] was 11.2%, the viability, T/C [29] was 7.78% and the viability, T/C [30] was 6.87%. For the same compound, the viability, T/C [31] was 20.8%, the viability, T/C [32] was 15% and the viability, T/C [33] was 11.1%. The viability, T/C [34] was 10.6%, the viability, T/C [35] was 7.84% and the viability, T/C [36] was 5.24%. For the same compound, the viability, T/C [37] was 24.5%, the viability, T/C [38] was 19.6% and the viability, T/C [39] was 10.9%. For the same compound, the viability, T/C [40] was 9.69%, the viability, T/C [41] was 6.97% and the viability, T/C [42] was 4.12%.
